Source: the NIST ThermoML archive (doi:10.1016/j.jct.2010.07.002)
Numbers after ± are expanded uncertainties.

How the values were obtained:
[1] = isobaric coefficient of expansion; conditions: 101.33 kPa, Liquid, Vibrating tube densimeter
[2] = 101.33 kPa, Liquid, Vibrating tube method
[3] = xn = mol fraction of the nth substance listed; conditions: 101.3 kPa, Liquid, Vibrating tube method

C[N+](=O)[O-] [nitromethane]
Conditions	isobaric coefficient of expansion, 278.15 K	isobaric coefficient of expansion, 288.15 K	isobaric coefficient of expansion, 298.15 K	isobaric coefficient of expansion, 308.15 K	isobaric coefficient of expansion, 318.15 K	mass density, 278.15 K [kg/m3]	mass density, 288.15 K [kg/m3]	mass density, 298.15 K [kg/m3]	mass density, 308.15 K [kg/m3]	mass density, 318.15 K [kg/m3]
[1]	0.00116 ± 1.9e-05 1/K	0.00118 ± 1.9e-05 1/K	0.0012 ± 2e-05 1/K	0.00122 ± 2e-05 1/K	0.00125 ± 2e-05 1/K	–	–	–	–	–
[2]	–	–	–	–	–	1158.25 ± 0.11	1144.75 ± 0.11	1131.18 ± 0.1	1117.53 ± 0.1	1103.79 ± 0.1

[2H]O[2H] [water-d2] + C[N+](=O)[O-]
mass density [kg/m3], [3]
Conditions	278.15 K	288.15 K	298.15 K	308.15 K	318.15 K
x1 = 0.001672	1158.21 ± 0.11	1144.71 ± 0.11	1131.14 ± 0.1	1117.49 ± 0.1	1103.75 ± 0.09
x1 = 0.002547	1158.18 ± 0.11	1144.68 ± 0.11	1131.11 ± 0.1	1117.46 ± 0.1	1103.73 ± 0.09
x1 = 0.004545	1158.14 ± 0.11	1144.64 ± 0.11	1131.07 ± 0.1	1117.42 ± 0.1	1103.67 ± 0.09
x1 = 0.00623	1158.09 ± 0.11	1144.59 ± 0.11	1131.02 ± 0.1	1117.37 ± 0.1	1103.63 ± 0.09
x1 = 0.008336	1158.04 ± 0.11	1144.54 ± 0.11	1130.97 ± 0.1	1117.32 ± 0.1	1103.58 ± 0.09
x1 = 0.009484	1158.01 ± 0.11	1144.51 ± 0.11	1130.94 ± 0.1	1117.3 ± 0.1	1103.56 ± 0.09
x1 = 0.01177	1157.96 ± 0.11	1144.46 ± 0.11	1130.89 ± 0.1	1117.24 ± 0.1	1103.5 ± 0.09
x1 = 0.01408	1157.9 ± 0.11	1144.4 ± 0.11	1130.83 ± 0.1	1117.19 ± 0.1	1103.45 ± 0.09
x1 = 0.01703	1157.83 ± 0.11	1144.34 ± 0.11	1130.77 ± 0.1	1117.12 ± 0.1	1103.38 ± 0.09
x1 = 0.02007	1157.77 ± 0.11	1144.27 ± 0.11	1130.7 ± 0.1	1117.06 ± 0.1	1103.32 ± 0.09
x1 = 0.02274	1157.71 ± 0.11	1144.21 ± 0.11	1130.64 ± 0.1	1117 ± 0.1	1103.26 ± 0.09
x1 = 0.02464	1157.67 ± 0.11	1144.17 ± 0.11	1130.6 ± 0.1	1116.97 ± 0.1	1103.22 ± 0.09
x1 = 0.02688	1157.62 ± 0.11	1144.12 ± 0.11	1130.55 ± 0.1	1116.92 ± 0.1	1103.17 ± 0.09
